Earlier results, collected in patent publication US12102063B2 (SYNEXIS LLC, priority 2017, dated 2024).

What was measured:
[1] = test system: Salmonella typhimurium; conditions: eggs dipped twice in 6% H2O2 solution; cited from earlier work
[2] = test system: Salmonella; conditions: […] solution with vacuum and surfactant; cited from earlier work
[3] = test system: bacterial counts on eggshells; conditions: 3% solution combined with ultraviolet light; cited from earlier work

OO [H2O2, hydrogen peroxide]
reduction of the number of Salmonella in eggshell membranes [1]: 95%
reduction of the numbers of positive eggs [1]: 55%
treated eggs that remained contaminated [2]: 30%
reduction in bacterial counts (cfu/egg) [3]: ≤ 3 log
